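Following 48 hours of exposure in 96-well plates, responses at five concentrations were used to interpolate endpoints linearly. The concentration for 50% growth inhibition is given as GI50. TGI is the concentration that stops growth completely.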
What was measured:
Assay in all cases: growth of human tumour cells (NCI), 48 h
NCI-H522 lung = tested on: NCI-H522 lung
T-47D breast = tested on: T-47D breast
RPMI-8226 leukemia = tested on: RPMI-8226 leukemia
EKVX NSCLC = tested on: EKVX NSCLC
SF-539 CNS = tested on: SF-539 CNS
MDA-MB-231 breast = tested on: MDA-MB-231 breast
OVCAR-8 ovarian = tested on: OVCAR-8 ovarian
BT-549 breast = tested on: BT-549 breast
HL-60(TB) leukemia = tested on: HL-60(TB) leukemia
PC-3 prostate = tested on: PC-3 prostate
SR leukemia = tested on: SR leukemia
786-0 renal = tested on: 786-0 renal
NCI-H460 lung = tested on: NCI-H460 lung
SNB-19 CNS = tested on: SNB-19 CNS
MDA-MB-435 = tested on: MDA-MB-435
HT29 colon = tested on: HT29 colon
SF-268 CNS = tested on: SF-268 CNS
A549 NSCLC = tested on: A549 NSCLC
HCT-116 colon = tested on: HCT-116 colon
UO-31 renal = tested on: UO-31 renal
SN12C renal = tested on: SN12C renal
LOX IMVI melanoma = tested on: LOX IMVI melanoma
U251 CNS = tested on: U251 CNS
ACHN renal = tested on: ACHN renal
NCI-H23 lung = tested on: NCI-H23 lung
UACC-62 melanoma = tested on: UACC-62 melanoma
SF-295 CNS = tested on: SF-295 CNS
CAKI-1 renal = tested on: CAKI-1 renal
HOP-62 NSCLC = tested on: HOP-62 NSCLC
TK-10 renal = tested on: TK-10 renal
OVCAR-3 ovarian = tested on: OVCAR-3 ovarian
SK-MEL-5 melanoma = tested on: SK-MEL-5 melanoma
KM12 colon = tested on: KM12 colon
MCF7 breast = tested on: MCF7 breast
OVCAR-5 ovarian = tested on: OVCAR-5 ovarian
SK-OV-3 ovarian = tested on: SK-OV-3 ovarian
MOLT-4 leukemia = tested on: MOLT-4 leukemia
A498 renal = tested on: A498 renal
HOP-92 NSCLC = tested on: HOP-92 NSCLC
CCRF-CEM leukemia = tested on: CCRF-CEM leukemia
HCC-2998 colon = tested on: HCC-2998 colon
MALME-3M melanoma = tested on: MALME-3M melanoma
M14 melanoma = tested on: M14 melanoma
RXF 393 renal = tested on: RXF 393 renal
COLO 205 colon = tested on: COLO 205 colon
OVCAR-4 ovarian = tested on: OVCAR-4 ovarian
SK-MEL-28 melanoma = tested on: SK-MEL-28 melanoma
NCI/ADR-RES ovarian = tested on: NCI/ADR-RES ovarian
DU-145 prostate = tested on: DU-145 prostate
HCT-15 colon = tested on: HCT-15 colon
SK-MEL-2 melanoma = tested on: SK-MEL-2 melanoma
UACC-257 melanoma = tested on: UACC-257 melanoma
K-562 leukemia = tested on: K-562 leukemia
IGROV1 ovarian = tested on: IGROV1 ovarian
SW-620 colon = tested on: SW-620 colon
SNB-75 CNS = tested on: SNB-75 CNS
HS 578T breast = tested on: HS 578T breast

CC[C@@H](C(=O)[C@@H](C)[C@@H](O)[C@H](C)[C@@H]1O[C@@H]([C@@H](CC)C(=O)O)CC[C@@H]1C)[C@H]1OC2(C=C[C@@H](O)[C@]3(CC[C@@](C)([C@H]4CC[C@](O)(CC)[C@H](C)O4)O3)O2)[C@H](C)C[C@@H]1C (some centres undefined) was tested. Which GI50 (NCI-H522 lung) did it give?
Its GI50 is 0.0774 µM.

And the TGI (NCI-H522 lung)?
Its TGI is 0.605 µM.

What about the GI50 (T-47D breast) of the same molecule?
The GI50 was 0.174 µM.

And the TGI (T-47D breast)?
The TGI was 10.4 µM.

And the GI50 (RPMI-8226 leukemia)?
Its GI50 is 0.117 µM.

What about the TGI (RPMI-8226 leukemia) of the same molecule?
Its TGI is 4.48 µM.

And the GI50 (EKVX NSCLC)?
The GI50 was 0.22 µM.

What about the TGI (EKVX NSCLC) of the same molecule?
Its TGI is over 32 µM.

And the GI50 (SF-539 CNS)?
The GI50 was 0.434 µM.

And the TGI (SF-539 CNS)?
Its TGI is 8.85 µM.

What about the GI50 (MDA-MB-231 breast) of the same molecule?
The GI50 was 0.239 µM.

And the TGI (MDA-MB-231 breast)?
The TGI was 17.1 µM.

And the GI50 (OVCAR-8 ovarian)?
Its GI50 is 0.823 µM.

What about the TGI (OVCAR-8 ovarian) of the same molecule?
Its TGI is over 48.3 µM.

What about the GI50 (BT-549 breast) of the same molecule?
Its GI50 is 0.233 µM.

What about the TGI (BT-549 breast) of the same molecule?
Its TGI is 2.97 µM.

And the GI50 (HL-60(TB) leukemia)?
The GI50 was 0.0894 µM.

What about the TGI (HL-60(TB) leukemia) of the same molecule?
The TGI was 0.316 µM.

What about the GI50 (PC-3 prostate) of the same molecule?
Its GI50 is 0.0408 µM.

What about the TGI (PC-3 prostate) of the same molecule?
The TGI was over 50 µM.

And the GI50 (SR leukemia)?
Its GI50 is 0.0815 µM.

What about the TGI (SR leukemia) of the same molecule?
The TGI was 1.78 µM.

What about the GI50 (786-0 renal) of the same molecule?
The GI50 was 0.589 µM.

And the TGI (786-0 renal)?
Its TGI is 12.4 µM.

And the GI50 (NCI-H460 lung)?
The GI50 was 0.324 µM.

What about the TGI (NCI-H460 lung) of the same molecule?
The TGI was 7.79 µM.

What about the GI50 (SNB-19 CNS) of the same molecule?
The GI50 was 0.577 µM.

And the TGI (SNB-19 CNS)?
Its TGI is over 14.2 µM.

And the GI50 (MDA-MB-435)?
Its GI50 is 0.568 µM.

What about the TGI (MDA-MB-435) of the same molecule?
Its TGI is 1.51 µM.

What about the GI50 (HT29 colon) of the same molecule?
Its GI50 is 0.231 µM.

And the TGI (HT29 colon)?
Its TGI is 19.7 µM.

What about the GI50 (SF-268 CNS) of the same molecule?
Its GI50 is 1.7 µM.

What about the TGI (SF-268 CNS) of the same molecule?
The TGI was 26.3 µM.

What about the GI50 (A549 NSCLC) of the same molecule?
The GI50 was 0.233 µM.

And the TGI (A549 NSCLC)?
The TGI was 9.77 µM.

What about the GI50 (HCT-116 colon) of the same molecule?
The GI50 was 0.359 µM.

What about the TGI (HCT-116 colon) of the same molecule?
Its TGI is 14.4 µM.

What about the GI50 (UO-31 renal) of the same molecule?
The GI50 was 1.27 µM.

And the TGI (UO-31 renal)?
The TGI was over 41.4 µM.

What about the GI50 (SN12C renal) of the same molecule?
Its GI50 is 0.14 µM.

What about the TGI (SN12C renal) of the same molecule?
The TGI was over 50 µM.

What about the GI50 (LOX IMVI melanoma) of the same molecule?
Its GI50 is 0.505 µM.

And the TGI (LOX IMVI melanoma)?
The TGI was over 19 µM.

What about the GI50 (U251 CNS) of the same molecule?
The GI50 was 0.135 µM.

What about the TGI (U251 CNS) of the same molecule?
The TGI was 5.56 µM.

And the GI50 (ACHN renal)?
Its GI50 is 1.68 µM.

What about the TGI (ACHN renal) of the same molecule?
The TGI was over 50 µM.

What about the GI50 (NCI-H23 lung) of the same molecule?
The GI50 was 0.207 µM.

And the TGI (NCI-H23 lung)?
Its TGI is 15.4 µM.

And the GI50 (UACC-62 melanoma)?
Its GI50 is 0.701 µM.

What about the TGI (UACC-62 melanoma) of the same molecule?
The TGI was 1.55 µM.

What about the GI50 (SF-295 CNS) of the same molecule?
The GI50 was 0.263 µM.

What about the TGI (SF-295 CNS) of the same molecule?
The TGI was 19.8 µM.

And the GI50 (CAKI-1 renal)?
Its GI50 is 1.2 µM.

What about the TGI (CAKI-1 renal) of the same molecule?
The TGI was over 50 µM.

What about the GI50 (HOP-62 NSCLC) of the same molecule?
The GI50 was 0.447 µM.

And the TGI (HOP-62 NSCLC)?
The TGI was 20.7 µM.

What about the GI50 (TK-10 renal) of the same molecule?
Its GI50 is 1.25 µM.

What about the TGI (TK-10 renal) of the same molecule?
Its TGI is 20.1 µM.

And the GI50 (OVCAR-3 ovarian)?
Its GI50 is 0.101 µM.

And the TGI (OVCAR-3 ovarian)?
The TGI was 15.1 µM.

What about the GI50 (SK-MEL-5 melanoma) of the same molecule?
The GI50 was 0.16 µM.

What about the TGI (SK-MEL-5 melanoma) of the same molecule?
Its TGI is 0.534 µM.

And the GI50 (KM12 colon)?
Its GI50 is 0.766 µM.

What about the TGI (KM12 colon) of the same molecule?
Its TGI is 8.43 µM.

What about the GI50 (MCF7 breast) of the same molecule?
The GI50 was 0.154 µM.

What about the TGI (MCF7 breast) of the same molecule?
The TGI was over 39.2 µM.

And the GI50 (OVCAR-5 ovarian)?
Its GI50 is 7.87 µM.

And the TGI (OVCAR-5 ovarian)?
Its TGI is over 50 µM.

What about the GI50 (SK-OV-3 ovarian) of the same molecule?
The GI50 was 1.76 µM.

And the TGI (SK-OV-3 ovarian)?
The TGI was 22.6 µM.

And the GI50 (MOLT-4 leukemia)?
Its GI50 is 0.726 µM.

What about the TGI (MOLT-4 leukemia) of the same molecule?
The TGI was 2.5 µM.

What about the GI50 (A498 renal) of the same molecule?
Its GI50 is 0.0276 µM.

What about the TGI (A498 renal) of the same molecule?
Its TGI is 0.458 µM.

What about the GI50 (HOP-92 NSCLC) of the same molecule?
Its GI50 is 0.0829 µM.

And the TGI (HOP-92 NSCLC)?
Its TGI is 5.45 µM.

And the GI50 (CCRF-CEM leukemia)?
The GI50 was 0.285 µM.

And the TGI (CCRF-CEM leukemia)?
The TGI was 10.7 µM.

What about the GI50 (HCC-2998 colon) of the same molecule?
Its GI50 is 0.105 µM.

What about the TGI (HCC-2998 colon) of the same molecule?
Its TGI is 10.5 µM.

What about the GI50 (MALME-3M melanoma) of the same molecule?
The GI50 was 0.224 µM.

What about the TGI (MALME-3M melanoma) of the same molecule?
Its TGI is 0.86 µM.

And the GI50 (M14 melanoma)?
Its GI50 is 0.79 µM.

What about the TGI (M14 melanoma) of the same molecule?
Its TGI is 1.88 µM.

What about the GI50 (RXF 393 renal) of the same molecule?
Its GI50 is 0.0485 µM.

And the TGI (RXF 393 renal)?
The TGI was 1.85 µM.

What about the GI50 (COLO 205 colon) of the same molecule?
Its GI50 is 0.124 µM.

What about the TGI (COLO 205 colon) of the same molecule?
Its TGI is 5.47 µM.

What about the GI50 (OVCAR-4 ovarian) of the same molecule?
Its GI50 is 3.01 µM.

What about the TGI (OVCAR-4 ovarian) of the same molecule?
Its TGI is 49.3 µM.

What about the GI50 (SK-MEL-28 melanoma) of the same molecule?
The GI50 was 0.63 µM.

What about the TGI (SK-MEL-28 melanoma) of the same molecule?
The TGI was 1.31 µM.

And the GI50 (NCI/ADR-RES ovarian)?
The GI50 was 0.434 µM.

And the TGI (NCI/ADR-RES ovarian)?
The TGI was over 50 µM.

And the GI50 (DU-145 prostate)?
The GI50 was 1.58 µM.

And the TGI (DU-145 prostate)?
Its TGI is over 50 µM.

What about the GI50 (HCT-15 colon) of the same molecule?
Its GI50 is 1.42 µM.

What about the TGI (HCT-15 colon) of the same molecule?
Its TGI is over 50 µM.

What about the GI50 (SK-MEL-2 melanoma) of the same molecule?
The GI50 was 0.622 µM.

What about the TGI (SK-MEL-2 melanoma) of the same molecule?
Its TGI is 2 µM.

What about the GI50 (UACC-257 melanoma) of the same molecule?
Its GI50 is 0.241 µM.

What about the TGI (UACC-257 melanoma) of the same molecule?
Its TGI is 5.49 µM.

What about the GI50 (K-562 leukemia) of the same molecule?
The GI50 was 0.213 µM.

And the TGI (K-562 leukemia)?
Its TGI is 3.39 µM.

What about the GI50 (IGROV1 ovarian) of the same molecule?
The GI50 was 1.84 µM.

And the TGI (IGROV1 ovarian)?
Its TGI is over 50 µM.

What about the GI50 (SW-620 colon) of the same molecule?
Its GI50 is 0.733 µM.

And the TGI (SW-620 colon)?
Its TGI is 9.14 µM.

What about the GI50 (SNB-75 CNS) of the same molecule?
The GI50 was 1.2 µM.

And the TGI (SNB-75 CNS)?
The TGI was over 24.2 µM.

And the GI50 (HS 578T breast)?
Its GI50 is 0.311 µM.

What about the TGI (HS 578T breast) of the same molecule?
Its TGI is over 50 µM.
